Data reported in PubChem BioAssay (NCI).
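Test compounds were applied to cells in 96-well plates for 48 hours at 5 doses. The concentration for 50% growth inhibition is given as GI50. Definition used: TGI = concentration required for complete inhibition of growth.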

What was measured:
Assay in all cases: NCI anticancer screen, dose series, 48 h
IGROV1 ovarian = system: IGROV1 ovarian
HCC-2998 colon = system: HCC-2998 colon
OVCAR-3 ovarian = system: OVCAR-3 ovarian
RPMI-8226 leukemia = system: RPMI-8226 leukemia
OVCAR-4 ovarian = system: OVCAR-4 ovarian
LOX IMVI melanoma = system: LOX IMVI melanoma
SK-MEL-5 melanoma = system: SK-MEL-5 melanoma
OVCAR-5 ovarian = system: OVCAR-5 ovarian
NCI-H522 lung = system: NCI-H522 lung
HCT-15 colon = system: HCT-15 colon
CCRF-CEM leukemia = system: CCRF-CEM leukemia
TK-10 renal = system: TK-10 renal
SK-OV-3 ovarian = system: SK-OV-3 ovarian
PC-3 prostate = system: PC-3 prostate
MDA-MB-435 = system: MDA-MB-435
COLO 205 colon = system: COLO 205 colon
UACC-257 melanoma = system: UACC-257 melanoma
786-0 renal = system: 786-0 renal
NCI-H23 lung = system: NCI-H23 lung
A549 NSCLC = system: A549 NSCLC
SW-620 colon = system: SW-620 colon
SF-268 CNS = system: SF-268 CNS
ACHN renal = system: ACHN renal
SR leukemia = system: SR leukemia
K-562 leukemia = system: K-562 leukemia
OVCAR-8 ovarian = system: OVCAR-8 ovarian
UACC-62 melanoma = system: UACC-62 melanoma
RXF 393 renal = system: RXF 393 renal
EKVX NSCLC = system: EKVX NSCLC
HOP-92 NSCLC = system: HOP-92 NSCLC
M14 melanoma = system: M14 melanoma
MDA-MB-468 breast = system: MDA-MB-468 breast
DU-145 prostate = system: DU-145 prostate
T-47D breast = system: T-47D breast
NCI/ADR-RES ovarian = system: NCI/ADR-RES ovarian
CAKI-1 renal = system: CAKI-1 renal
HS 578T breast = system: HS 578T breast
NCI-H226 lung = system: NCI-H226 lung
A498 renal = system: A498 renal
SN12C renal = system: SN12C renal
HL-60(TB) leukemia = system: HL-60(TB) leukemia
HOP-62 NSCLC = system: HOP-62 NSCLC
HT29 colon = system: HT29 colon
MCF7 breast = system: MCF7 breast
HCT-116 colon = system: HCT-116 colon
SNB-19 CNS = system: SNB-19 CNS
MALME-3M melanoma = system: MALME-3M melanoma
SF-295 CNS = system: SF-295 CNS
BT-549 breast = system: BT-549 breast
MOLT-4 leukemia = system: MOLT-4 leukemia
U251 CNS = system: U251 CNS
NCI-H460 lung = system: NCI-H460 lung
KM12 colon = system: KM12 colon
SK-MEL-28 melanoma = system: SK-MEL-28 melanoma
SF-539 CNS = system: SF-539 CNS

Structure (SMILES): Clc1ccc(-c2nc3c4c(-c5ccccc5)c(-c5ccccc5)n(Cc5ccccc5)c4ncn3n2)cc1
- GI50 (IGROV1 ovarian): 8.02 µM
- TGI (IGROV1 ovarian): 85.8 µM
- GI50 (HCC-2998 colon): 6.37 µM
- TGI (HCC-2998 colon): 39.7 µM
- GI50 (OVCAR-3 ovarian): 4.76 µM
- TGI (OVCAR-3 ovarian): > 100 µM
- GI50 (RPMI-8226 leukemia): 2460 nM
- TGI (RPMI-8226 leukemia): 8.69 µM
- GI50 (OVCAR-4 ovarian): 10.3 µM
- TGI (OVCAR-4 ovarian): > 100 µM
- GI50 (LOX IMVI melanoma): 10.9 µM
- TGI (LOX IMVI melanoma): 25.2 µM
- GI50 (SK-MEL-5 melanoma): 3.26 µM
- TGI (SK-MEL-5 melanoma): 12.9 µM
- GI50 (OVCAR-5 ovarian): 21.3 µM
- TGI (OVCAR-5 ovarian): 90.3 µM
- GI50 (NCI-H522 lung): 5.95 µM
- TGI (NCI-H522 lung): 43.7 µM
- GI50 (HCT-15 colon): 20.5 µM
- TGI (HCT-15 colon): > 100 µM
- GI50 (CCRF-CEM leukemia): 9.15 µM
- TGI (CCRF-CEM leukemia): 51 µM
- GI50 (TK-10 renal): 19 µM
- TGI (TK-10 renal): > 100 µM
- GI50 (SK-OV-3 ovarian): 12.8 µM
- TGI (SK-OV-3 ovarian): 46.7 µM
- GI50 (PC-3 prostate): 3.51 µM
- TGI (PC-3 prostate): 97.3 µM
- GI50 (MDA-MB-435): 4.92 µM
- TGI (MDA-MB-435): 71.3 µM
- GI50 (COLO 205 colon): 4.66 µM
- TGI (COLO 205 colon): 16.8 µM
- GI50 (UACC-257 melanoma): 4.17 µM
- TGI (UACC-257 melanoma): 34.2 µM
- GI50 (786-0 renal): 12.6 µM
- TGI (786-0 renal): 93.3 µM
- GI50 (NCI-H23 lung): 6.88 µM
- TGI (NCI-H23 lung): 44.4 µM
- GI50 (A549 NSCLC): 20.6 µM
- TGI (A549 NSCLC): > 100 µM
- GI50 (SW-620 colon): 12.5 µM
- TGI (SW-620 colon): > 100 µM
- GI50 (SF-268 CNS): 12.2 µM
- TGI (SF-268 CNS): > 100 µM
- GI50 (ACHN renal): 20.8 µM
- TGI (ACHN renal): 79.7 µM
- GI50 (SR leukemia): 13 µM
- TGI (SR leukemia): 36.5 µM
- GI50 (K-562 leukemia): 4.84 µM
- TGI (K-562 leukemia): > 100 µM
- GI50 (OVCAR-8 ovarian): 12.5 µM
- TGI (OVCAR-8 ovarian): > 100 µM
- GI50 (UACC-62 melanoma): 3.59 µM
- TGI (UACC-62 melanoma): 15.2 µM
- GI50 (RXF 393 renal): 14.2 µM
- TGI (RXF 393 renal): 39.9 µM
- GI50 (EKVX NSCLC): 4.6 µM
- TGI (EKVX NSCLC): 48.7 µM
- GI50 (HOP-92 NSCLC): 1900 nM
- TGI (HOP-92 NSCLC): 9.53 µM
- GI50 (M14 melanoma): 12 µM
- TGI (M14 melanoma): 77.7 µM
- GI50 (MDA-MB-468 breast): 2840 nM
- TGI (MDA-MB-468 breast): 10.3 µM
- GI50 (DU-145 prostate): 19.1 µM
- TGI (DU-145 prostate): > 100 µM
- GI50 (T-47D breast): 3.5 µM
- TGI (T-47D breast): 62.5 µM
- GI50 (NCI/ADR-RES ovarian): 24.2 µM
- TGI (NCI/ADR-RES ovarian): 97 µM
- GI50 (CAKI-1 renal): 21.4 µM
- TGI (CAKI-1 renal): 89.2 µM
- GI50 (HS 578T breast): 9.38 µM
- TGI (HS 578T breast): 38.2 µM
- GI50 (NCI-H226 lung): 16.3 µM
- TGI (NCI-H226 lung): 56.9 µM
- GI50 (A498 renal): 23 µM
- TGI (A498 renal): 63 µM
- GI50 (SN12C renal): 7.73 µM
- TGI (SN12C renal): 46 µM
- GI50 (HL-60(TB) leukemia): 3.08 µM
- TGI (HL-60(TB) leukemia): 15.5 µM
- GI50 (HOP-62 NSCLC): 16.1 µM
- TGI (HOP-62 NSCLC): 38.4 µM
- GI50 (HT29 colon): 6.18 µM
- TGI (HT29 colon): > 100 µM
- GI50 (MCF7 breast): 8.31 µM
- TGI (MCF7 breast): 61.8 µM
- GI50 (HCT-116 colon): 3.53 µM
- TGI (HCT-116 colon): 35.2 µM
- GI50 (SNB-19 CNS): 4.8 µM
- TGI (SNB-19 CNS): > 100 µM
- GI50 (MALME-3M melanoma): 2750 nM
- TGI (MALME-3M melanoma): 9.5 µM
- GI50 (SF-295 CNS): 11.5 µM
- TGI (SF-295 CNS): 25.7 µM
- GI50 (BT-549 breast): 4.35 µM
- TGI (BT-549 breast): 22.5 µM
- GI50 (MOLT-4 leukemia): 11.7 µM
- TGI (MOLT-4 leukemia): 58.2 µM
- GI50 (U251 CNS): 4.58 µM
- TGI (U251 CNS): 33.5 µM
- GI50 (NCI-H460 lung): 8.24 µM
- TGI (NCI-H460 lung): 35.4 µM
- GI50 (KM12 colon): 5.17 µM
- TGI (KM12 colon): 36.5 µM
- GI50 (SK-MEL-28 melanoma): 5.33 µM
- TGI (SK-MEL-28 melanoma): 47.1 µM
- GI50 (SF-539 CNS): 15.8 µM
- TGI (SF-539 CNS): 33.5 µM
